Results as given in patent US20130345268A1, “Methods and Compositions for the Treatment of RAS Associated Disorders” (The Trustees of Dartmouth College, priority 2009, published 2013).
Like-named read-outs stand apart in the source and are kept apart here.

What was measured:
[1] = test system: U-87 MG GBM (glioblastoma) cells; test: Growth of glioblastoma cells in vitro, Alamar Blue; type: cell-based; conditions: Homo sapiens, 72 h, U87-MG cells, three days, normalized to DMSO-treated wells, three independent experiments
Experimental: FIG. 4 depicts the effects of two compounds active in NF1−/− MPNST cells on the growth of U-87 MG GBM (glioblastoma) cells in vitro. FIG. 4a depicts the effects of the compound of Formula I(a); FIG. 4b depicts the effects of the compound of Formula IV(c). U87-MG cells were seeded in 96 well plates at a density of 1000 per well in DMEM containing 10% fetal bovine serum. The next day, medium was removed and fresh medium containing 0.1% DMSO or compound was added back. Plates were incubated for three days at 37° C., 5% CO2. Cell growth was assessed with Alamar Blue with values normalized to the DMSO-treated wells. Values are mean of three wells. The AC50 for the compound of Formula Ia was 3.77 micromolar +/−0.7. The AC50 for the compound of Formula IV(c) was 0.97 micromolar +/−0.1. AC50 was calculated using data from three independent experiments.

[2] = test system: T265 (NF1 mutant MPNST/sarcoma cells); test: In vitro growth of NF1 mutant MPNST cells, alamar blue, dose-response; type: cell-based; conditions: Homo sapiens
Experimental: (§1) The NF1−/− MPNST line T265 used for the screen provides two additional readouts for the chemical approaches to suppress the phenotypes of NFI loss: activated Ras (Mahller et al., 2005) and activated MAPK (FIG. 1). In vitro growth assays of the two cell lines (NF1 positive and NF1 negative) are scaled down to 384 well plates. An Evotec Technologies plate::explorer uHTS system is used. MPNST cell lines T265 and STS26T in logarithmic growth phase are plated in separate 384 well plates at a density of 500 cells per well in Dulbecco's modified Eagle's medium (DMEM; Fisher Scientific; Pittsburgh, Pa.) supplemented with 10% Fetal Bovine Serum (Harlan; Indianapolis, Ind.) containing vehicle (DMSP, “Dimethyl Sulfoxide”) only or one of 13,031 candidate compounds at a concentration of 10 micromolar, a concentration of drug shown not to cause cell death of many human cell lines. The candidate compounds are selected to represent a cross section of compounds covering the diversity space resident in the available library, restricted to drug-like compounds, but evenly and consistently representative across this realm and representative of commercially available compounds. Compounds targeting GPCRs, kinases and other targets of known medical interest are also included. The cells are incubated with the compounds or 5 μg/ml doxorubicin as a positive control for 2 days. Growth is monitored by using the alamar blue method (Alley et al. 1988; Ahmed et al. 1994.) Metabolic activity of cells results in reduction of alamar blue and a large increase in alamar blue fluorescence, which correlates with cell number. Candidate compounds causing interference with fluorescence are eliminated. […] Appropriate control samples and statistical analyses are used.
(§2) Confirmed hits that decreased viability of both cell lines were identified as possible therapeutic agents. A smaller population of hits selectively affected the non-NF1 cell line. These seven confirmed “hits,” or potential therapeutic agents, were tested using the same assay method at 10 concentrations, in triplicate, to give a dose-response and to determine the AC50 (the concentration at which 50% of the maximum activity or inhibition is achieved) for each compound. Using the initial screen, seven compounds are identified showing a significant differential growth inhibition of the mutant NF1 cells relative to wild type NF1 cells.

[3] = test system: STS26T (26T, NF1 wild type MPNST/sarcoma cells); test: In vitro growth of NF1 wild type MPNST cells, alamar blue, dose-response; type: cell-based, human; conditions: for IC50: Homo sapiens, STS-26T
Experimental: as §1, §2

[4] = test system: cells lacking Ira2 and Erg6; test: Growth of strains lacking Ira2 and Erg6, optical density at 595 nm; type: cell-based; conditions: Synthetic Complete media, 32C, 24 h, OD 595 nm
Experimental: FIG. 3. […] Strains were grown overnight in Synthetic Complete media. 75 μL of culture at a starting optical density of 0.1 were added to a 96 well plate containing 75 μL of Synthetic Complete media with twice the desired final concentration of compound in 1% DMSO. Plates were incubated in a humidified 32C chamber, and scanned on an optical density plate reader at 595 nm after 24 h. The bars represent the mean of three wells, and the error bars represent ±2× standard error.

[5] = 48 h, Table 3, T265 cells, alamar blue, 2 days, 10 concentrations in triplicate, read-out: T265 IC50
[6] = Table 4, NF1 mutant sarcoma cells (T265), read-out: IC50, T265
[7] = 48 h, Table 3, STS26T cells, alamar blue, 2 days, 10 concentrations in triplicate, read-out: 26T IC50
[8] = Table 4, NF1 wild type (26T) sarcoma cells, read-out: IC50, 26T

Row | Compound | IC50 [2, 5] [µM] | IC50 [2, 6] [µM] | IC50 [3, 7] [µM] | IC50 [3, 8] [µM] | 26T IC50 ([3]; Table 3, STS26T cells, alamar blue, 2 days, 10 concentrations in triplicate) | AC50 [1] [µM] | Inhibition of growth [4]
1 | Cc1ccc(NC(=O)C2=C(c3ccccc3)S(=O)(=O)CCS2(=O)=O)cc1 [Formula IV(c)] |  |  |  |  |  | 0.97 | 
2 | N=C(N)SCc1cn(-c2ccccc2)nc1-c1cccc(Br)c1 [Formula Ia] | 1.3 | 1.3 | 50.3 | 50.3 |  | 3.77 | Inhibition of growth
3 | CCCCc1ccc2nc(-c3ccccc3)cc(C(=O)NC(C(=O)NC(C)CCCN(CC)CC)C(C)C)c2c1 (centres unmarked) [III] | 3 |  |  |  | No Effect |  | 
4 | CCc1cc(-c2ccccc2OS(=O)(=O)c2ccc3ccccc3c2)nn1CCNCCOc1ccccc1 [VI] | 4.5 |  | 1.9 |  |  |  | 

Continued by falling IC50 [2, 5], values first:

Row | IC50 [2, 5] [µM] | IC50 [2, 6] [µM] | IC50 [3, 7] [µM] | IC50 [3, 8] [µM] | 26T IC50 ([3]; Table 3, STS26T cells, alamar blue, 2 days, 10 concentrations in triplicate) | Compound | AC50 [1] [µM] | Inhibition of growth [4]
5 | 2.8 | 2.9 | 22.8 | 22.9 |  | CCc1cc(-c2ccccc2OS(=O)(=O)c2ccc3ccccc3c2)nn1CCNCCc1ccc(OC)c(OC)c1 [V] |  | 
6 | 1.7 |  | 1 |  |  | CCN(CC)C(=S)SCC(=O)n1c(C)cc(-c2ccccc2F)c1C [XI] |  | 
7 | 1.1 | 1.1 | 19.5 | 19.5 |  | Cc1ccc(Cn2c(=N)n(CC(O)c3ccc(Br)cc3)c3ccccc32)cc1 (centres unmarked) [VIII] |  | 
8 | 0.078 |  | 0.056 |  |  | Cc1ccc(Cn2c(=N)n(CC(=O)c3ccc(Br)cc3)c3ccccc32)cc1 [VII] |  | 
